According to US20240150338A1, “COMPOUNDS AND USE THEREOF FOR TREATMENT OF NEURODEGENERATIVE, DEGENERATIVE AND METABOLIC DISORDERS” (University of Florida Research Foundation, Incorporated, priority 2021, published 2024):

Tests used:
[1] = Microsomal stability assay; assay type: in vitro ADME; settings: 1 mg/ml human hepatic microsomes, 37° C., half-life by LC-MS/MS; yes = stability ≥15 minutes
Method: The metabolic stability of some test compounds was determined in hepatic human and mouse microsomes. The compound was incubated with 1 mg/ml human or mouse hepatic microsomes at 37° C. with continuous shaking. Aliquots were removed at various time points between 5 minutes and 2 hours and acetonitrile was added to quench the reactions and precipitate the proteins. Samples were then centrifuged through 0.45 μm filter plates and half-lives were determined by LC-MS/MS.

[2] = tested on: PK1 neuroblastoma cells exposed to TPrP; assay: cells; assay type: cell-based; settings: Neuroblastoma cell, 96 h, read-out: TPrP EC50

Row | Compound | Stabilty in human microsomes ≥ 15 minutes [1] | EC50 [2] [nM]
1 | CNS(=O)(=O)c1ccc(-c2csc(Nc3ccc(S(C)(=O)=O)c(F)c3)n2)cc1 [SR-35735, 4-(2-((3-Fluoro-4-(methylsulfonyl)phenyl)amino)thiazol-4-yl)-N-methylbenzenesulfonamide] | yes | 6
2 | CNS(=O)(=O)c1ccc(-c2csc(Nc3ccc(S(C)(=O)=O)c(Cl)c3)n2)cc1 [SR-35736, 4-(2-((3-Chloro-4-(methylsulfonyl)phenyl)amino)thiazol-4-yl)-N-methylbenzenesulfonamide] | yes | 5
3 | Cc1cc(-c2csc(Nc3ccc(CS(C)(=O)=O)cc3)n2)ccn1 [SR-35786, 4-(2-Methylpyridin-4-yl)-N-(4-((methylsulfonyl)methyl)phenyl)thiazol-2-amine] | yes | 14
4 | COc1cccc(-c2csc(Nc3ccc(S(C)(=O)=O)cc3)n2)c1 [SR-35788, 4-(3-Methoxyphenyl)-N-(4-(methylsulfonyl)phenyl)thiazol-2-amine] | yes | 170
5 | CC(C)c1ccc(-c2csc(Nc3ccc(S(C)(=O)=O)cc3)n2)cc1 [SR-35789, 4-(4-Isopropylphenyl)-N-(4-(methylsulfonyl)phenyl)thiazol-2-amine] | yes | > 500
